Data as given in US20190343908A1, “Therapeutic Combination for the Treatment of Cancer” (Nerium Biotechnology Inc., priority 2011, published 2019).

What was measured:
[1] = tested on: COLO699N lung cancer cell line; experiment: Methyl-Tetrazolium viability assay, COLO699N; assay type: cell-based, human; parameters: key to MTT Average: absorbance (optical density) at 570 nm, second wavelength subtracted; conditions: for Average MTT 24 h / Average MTT 48 h / Average MTT 72 h: COLO699N Run 1; for ABSORBANCE: COLO699N, 0.1 μg/mL cisplatin
Source text: (§1) Three different viability assays were chosen to complement each other and yielded results dependent on concentration and cell line: the Methyl Tetrazolium dye assay, the Sulforhodamine B fluorescent dye assay, and the Crystal Violet dye assay.
The Methyl-Tetrazolium dye assay measures the activity of enzymes in mitochondria. The dye precursor is taken up by cells, where it undergoes reduction to the purple formazan. It measures only the mitochondrial activity and, thus, it is not always a reliable indication of whether the cells themselves are alive or dead, since even a recently dead cell has […] enzyme activity in mitochondria. Intracellular glucose concentration, pH, and time before assay all affect the measurements.
(§2) The Methyl Tetrazolium, Sulforhodamine B, and Crystal Violet assays were used to assess cell viabilities. The incubation times were 24 hours, 48 hours, and 72 hours. The Nerium oleander extract Anvirzel™ (a hot water extract of oleander obtained from Salud Integral, Honduras) was tested in concentrations ranging from 0.01 ng/mL to 10 ng/mL.
(§3) Cells were detached by trypsinization (Trypsin-0.25% EDTA, Invitrogen, 25200-072) during the logarithmic phase of culture growth and plated in 96-well plates (18.000 cells/well) (Corning, Costar 359) in a final volume of 200 μl of medium per well. […] The absorbance was measured after 24 hours, 48 hours, and 72 hours of incubation.
For the Methyl-Tetrazolium assay, the dye (Sigma, M2128; 5 mg/mL, diluted in phosphate-buffered saline) was added to each well and plates were incubated for 3 hours at 37° C. After the end of the incubation period, the medium was discarded and the cells were rinsed with phosphate-buffered saline. Finally, the formazan crystals were dissolved in dimethylsulphoxide (Sigma, D4540).
(§4) The optical density of each plate was measured on a μQuant spectrophotometer and the data were analyzed with Gen5 software (μQuant Biomolecular Spectrophotometer MQX200 and Gen5™ Microplate Data Collection & Analysis software, BioTek® Instruments. Inc, April 2008). Absorbance was measured at 570 nm for all assays and a second wavelength was measured in order to subtract noise. For the Methyl-Tetrazolium assay this second wavelength was 630 nm and for the Sulforhodamine B and Crystal Violet assays it was 690 nm.

[2] = tested on: CALU-1 (non-small cell lung carcinoma); experiment: Sulforhodamine B viability assay, CALU-1; assay type: cell-based, human
Source text: as §1
The Sulforhodamine B and Crystal Violet assays provide information about protein and were used to complement the Methyl-Tetrazolium dye assay. […] It is used for the quantification of cellular proteins of cultured cells. The assay using Crystal Violet, a dye that binds electrostatically to proteins and stains DNA, provides a reliable, simple assay for measuring viability of cells.
as §2, §3
For the Sulforhodamine B assay, 96-well plates were fixed by 10% trichloroacetic acid (Fluka, 91228) and were incubated at 4° C. for 1 hour. Afterwards, plates were rinsed with water and cells were stained with 0.4% Sulforhodamine B (Sigma, 341738), dissolved in 1% acetic acid (Carlo Ebra, 401422) for 15 minutes at room temperature (RT). The unbound stain was washed twice with 1% acetic acid. Finally, 10 mM Tris Buffer pH 10.5 (Sigma, T6791) was added to dissolve the dye.
as §4

For N.N.[Cl][Pt][Cl] [cisplatin], the “Average MTT 24 h” value ([1]; 0.1 μg/ml CDDP) was 0.122, the “Average MTT 48 h” value ([1]; 0.1 μg/ml CDDP, 48 h) was 0.179 and the “Average MTT 72 h” value ([1]; 0.1 μg/ml CDDP, 72 h) was 0.237. The “Average MTT 24 h” value ([1]; 1 μg/ml CDDP) was 0.023, the “Average MTT 48 h” value ([1]; 1 μg/ml CDDP, 48 h) was 0.016 and the “Average MTT 72 h” value ([1]; 1 μg/ml CDDP, 72 h) was 0.019. The “Average MTT 24 h” value ([1]; 10 μg/ml CDDP) was 0.384, the “Average MTT 48 h” value ([1]; 10 μg/ml CDDP, 48 h) was 0.012 and the “Average MTT 72 h” value ([1]; 10 μg/ml CDDP, 72 h) was 0.016. For the same compound, the “Average MTT 24 h” value ([1]; 100 μg/ml CDDP) was 0.033, the “Average MTT 48 h” value ([1]; 100 μg/ml CDDP, 48 h) was 0.011 and the “Average MTT 72 h” value ([1]; 100 μg/ml CDDP, 72 h) was 0.014. The ABSORBANCE ([1]; 48 h) was 0.636, the ABSORBANCE ([1]; 72 h) was 0.73 and the “MTT Average” value ([1]; Run 2, 24 h, 0.1 μg/ml CDDP) was 0.362. For the same compound, the “MTT Average” value ([1]; Run 2, 24 h, 1 μg/ml CDDP) was 0.055, the “MTT Average” value ([1]; Run 2, 24 h, 10 μg/ml CDDP) was 0.178 and the “MTT Average” value ([1]; Run 2, 24 h, 100 μg/ml CDDP) was 0.04. For the same compound, the “MTT Average” value ([1]; Run 2, 48 h, 0.1 μg/ml CDDP) was 0.636, the “MTT Average” value ([1]; Run 2, 48 h, 1 μg/ml CDDP) was 0.04 and the “MTT Average” value ([1]; Run 2, 48 h, 10 μg/ml CDDP) was 0.049. For the same compound, the “MTT Average” value ([1]; Run 2, 48 h, 100 μg/ml CDDP) was 0.018, the “MTT Average” value ([1]; Run 2, 72 h, 0.1 μg/ml CDDP) was 0.73 and the “MTT Average” value ([1]; Run 2, 72 h, 1 μg/ml CDDP) was 0.044. For the same compound, the “MTT Average” value ([1]; Run 2, 72 h, 10 μg/ml CDDP) was 0.057, the “MTT Average” value ([1]; Run 2, 72 h, 100 μg/ml CDDP) was 0.068 and the “MTT Average” value ([1]; Run 3, 24 h, 0.1 μg/ml CDDP) was 0.365. For the same compound, the “MTT Average” value ([1]; Run 3, 24 h, 1 μg/ml CDDP) was 0.04, the “MTT Average” value ([1]; Run 3, 24 h, 10 μg/ml CDDP) was 0.148 and the “MTT Average” value ([1]; Run 3, 24 h, 100 μg/ml CDDP) was 0.041. For the same compound, the “MTT Average” value ([1]; Run 3, 48 h, 0.1 μg/ml CDDP) was 0.442, the “MTT Average” value ([1]; Run 3, 48 h, 1 μg/ml CDDP) was 0.063 and the “MTT Average” value ([1]; Run 3, 48 h, 10 μg/ml CDDP) was 0.041. The “MTT Average” value ([1]; Run 3, 48 h, 100 μg/ml CDDP) was 0.025, the “MTT Average” value ([1]; Run 3, 72 h, 0.1 μg/ml CDDP) was 0.638 and the “MTT Average” value ([1]; Run 3, 72 h, 1 μg/ml CDDP) was 0.078. The “MTT Average” value ([1]; Run 3, 72 h, 10 μg/ml CDDP) was 0.026, the “MTT Average” value ([1]; Run 3, 72 h, 100 μg/ml CDDP) was 0.027 and the “Average SRB 24 h” value ([2]; CALU-1 Run 1, 0.1 μg/ml CDDP) was 1.457. For the same compound, the “Average SRB 48 h” value ([2]; CALU-1 Run 1, 0.1 μg/ml CDDP) was 1.939, the “Average SRB 72 h” value ([2]; CALU-1 Run 1, 0.1 μg/ml CDDP) was 1.598 and the “Average SRB 24 h” value ([2]; CALU-1 Run 1, 1 μg/ml CDDP) was 1.438. The “Average SRB 48 h” value ([2]; CALU-1 Run 1, 1 μg/ml CDDP) was 1.991, the “Average SRB 72 h” value ([2]; CALU-1 Run 1, 1 μg/ml CDDP) was 1.5 and the “Average SRB 24 h” value ([2]; CALU-1 Run 1, 10 μg/ml CDDP) was 1.401. The “Average SRB 48 h” value ([2]; CALU-1 Run 1, 10 μg/ml CDDP) was 1.563, the “Average SRB 72 h” value ([2]; CALU-1 Run 1, 10 μg/ml CDDP) was 1.108 and the “Average SRB 24 h” value ([2]; CALU-1 Run 1, 100 μg/ml CDDP) was 1.348. The “Average SRB 48 h” value ([2]; CALU-1 Run 1, 100 μg/ml CDDP) was 1.521, the “Average SRB 72 h” value ([2]; CALU-1 Run 1, 100 μg/ml CDDP) was 1.299 and the “Average SRB 24 h” value ([2]; CALU-1 Run 2, 0.1 μg/ml CDDP) was 1.437. The “Average SRB 48 h” value ([2]; CALU-1 Run 2, 0.1 μg/ml CDDP) was 1.79, the “Average SRB 72 h” value ([2]; CALU-1 Run 2, 0.1 μg/ml CDDP) was 2.674 and the “Average SRB 24 h” value ([2]; CALU-1 Run 2, 1 μg/ml CDDP) was 1.725. For the same compound, the “Average SRB 48 h” value ([2]; CALU-1 Run 2, 1 μg/ml CDDP) was 1.837, the “Average SRB 72 h” value ([2]; CALU-1 Run 2, 1 μg/ml CDDP) was 2.563 and the “Average SRB 24 h” value ([2]; CALU-1 Run 2, 10 μg/ml CDDP) was 1.48. For the same compound, the “Average SRB 48 h” value ([2]; CALU-1 Run 2, 10 μg/ml CDDP) was 1.702, the “Average SRB 72 h” value ([2]; CALU-1 Run 2, 10 μg/ml CDDP) was 2.434 and the “Average SRB 24 h” value ([2]; CALU-1 Run 2, 100 μg/ml CDDP) was 1.318. For the same compound, the “Average SRB 48 h” value ([2]; CALU-1 Run 2, 100 μg/ml CDDP) was 1.541, the “Average SRB 72 h” value ([2]; CALU-1 Run 2, 100 μg/ml CDDP) was 1.575 and the “Average SRB 24 h” value ([2]; CALU-1 Run 3, 0.1 μg/ml CDDP, 24 h) was 1.492. For the same compound, the “Average SRB 48 h” value ([2]; CALU-1 Run 3, 0.1 μg/ml CDDP, 48 h) was 1.491, the “Average SRB 72 h” value ([2]; CALU-1 Run 3, 0.1 μg/ml CDDP, 72 h) was 1.835 and the “Average SRB 24 h” value ([2]; CALU-1 Run 3, 1 μg/ml CDDP, 24 h) was 1.295. The “Average SRB 48 h” value ([2]; CALU-1 Run 3, 1 μg/ml CDDP, 48 h) was 1.463, the “Average SRB 72 h” value ([2]; CALU-1 Run 3, 1 μg/ml CDDP, 72 h) was 1.452 and the “Average SRB 24 h” value ([2]; CALU-1 Run 3, 10 μg/ml CDDP, 24 h) was 1.139. The “Average SRB 48 h” value ([2]; CALU-1 Run 3, 10 μg/ml CDDP, 48 h) was 1.152, the “Average SRB 72 h” value ([2]; CALU-1 Run 3, 10 μg/ml CDDP, 72 h) was 1.193 and the “Average SRB 24 h” value ([2]; CALU-1 Run 3, 100 μg/ml CDDP, 24 h) was 0.98. The “Average SRB 48 h” value ([2]; CALU-1 Run 3, 100 μg/ml CDDP, 48 h) was 1.449 and the “Average SRB 72 h” value ([2]; CALU-1 Run 3, 100 μg/ml CDDP, 72 h) was 1.264.
